The source of these data is patent US9574190B2, “Screening method for peptide binding to target molecule in pH-dependent manner” (The University of Tokyo, priority 2012, dated 2017).

For this assay, the target named is T1, FcRn (Homo sapiens, UniProt P55899).
T1 construct: human soluble FcRn chemically biotinated with NHS-biotin
In words: Biacore T100 measurement of dissociation constant of solid-phase synthesized peptide with immobilized FcRn. The class given is binding. As to the method: In order to find whether a peptide alone interacts with FcRn in a pH dependent manner, the peptide 2G01D not having SGSGS on the C-terminal side of 8D-01 and amidated at the C-terminal was synthesized on a solid phase and a dissociation constant Kd binding constant was measured using Biacore T100 (GE Healthcare). FcRn was immobilized onto a sensor chip by an amine coupling method. The following is the peptide 2G01D:
On the other hand, a solid-phase synthesized peptide 2G01D was added as an analyte to a phosphate buffer having a pH 6.0 or 7.4 and a dissociation constant was measured.

Bridge positions count the residues as written; N and C are the ends. Square brackets hold non-standard residues; d marks the D form. Peptide text beside a SMILES is read from it. Tyr(3-NO2) = N[C@@H](Cc1ccc(O)c([N+](=O)[O-])c1)C(=O)O; dTyr(3-NO2) = N[C@H](Cc1ccc(O)c([N+](=O)[O-])c1)C(=O)O; Arg(NO2) = N=C(NCCC[C@H](N)C(=O)O)N[N+](=O)[O-]

T1 sequence (P55899 24-297 limits assumed): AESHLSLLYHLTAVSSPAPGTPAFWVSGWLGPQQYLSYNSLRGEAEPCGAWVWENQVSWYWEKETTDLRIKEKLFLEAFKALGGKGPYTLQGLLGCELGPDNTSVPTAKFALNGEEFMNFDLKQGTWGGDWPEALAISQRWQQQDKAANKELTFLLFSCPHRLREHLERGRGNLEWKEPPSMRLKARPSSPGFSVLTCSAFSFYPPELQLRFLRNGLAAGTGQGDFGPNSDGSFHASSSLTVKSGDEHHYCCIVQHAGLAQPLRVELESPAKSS
T1 sequence (P61769 21-119 partner): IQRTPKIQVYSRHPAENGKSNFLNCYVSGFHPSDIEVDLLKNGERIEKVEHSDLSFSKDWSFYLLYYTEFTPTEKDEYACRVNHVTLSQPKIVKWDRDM

By koff is commonly meant the first-order rate constant of dissociation. In general, kon refers to the second-order rate constant of association. Where the note is “pH 6.0, phosphate buffer”, `CC(C)C[C@@H]1NC(=O)[C@H](Cc2ccc(O)c([N+](=O)[O-])c2)NC(=O)[C@H](CC(C)C)NC(=O)[C@@H]2CCCN2C(=O)[C@H](CC(=O)O)NC(=O)CNC(=O)[C@H](CCCNC(=N)N[N+](=O)[O-])NC(=O)[C@H](CC(N)=O)NC(=O)[C@H](Cc2ccc(O)cc2)NC(=O)[C@H](CC(C)C)NC(=O)[C@H](Cc2ccc(O)c([N+](=O)[O-])c2)NC(=O)[C@H](Cc2ccccc2)NC(=O)[C@@H](Cc2ccc(O)c([N+](=O)[O-])c2)NC(=O)CSC[C@@H](C(=O)NCC(N)=O)NC1=O` [2G01D] ({CH2CO}-[dTyr(3-NO2)]F[Tyr(3-NO2)]LYN[Arg(NO2)]GDPL[Tyr(3-NO2)]LCG-NH2; thioether N-14) came in with a koff of 0.00394 s⁻¹ and a kon of 925000 M⁻¹ s⁻¹. For the setting “pH 7.4, phosphate buffer”, the koff amounted to 0.00955 s⁻¹ and the kon was determined as 32600 M⁻¹ s⁻¹.
